From patent US9758459B2, “Allosteric modulators of factor XIa as anticoagulant agents” (VIRGINIA COMMONWEALTH UNIVERSITY, priority 2012, dated 2017)
Where “and” joins values, the source holds several entries; their conditions need not be identical. Equal values may be shown once. Read-outs that look alike come from different tables or passages of the source.

Key:
Assay type in all cases: biochemical
human factor XIa = target: T1, human factor XIa (Homo sapiens, UniProt P03951); assay: Direct inhibition of factor XIa, chromogenic substrate S-2366 hydrolysis assay
T1 construct: purchased Haematologic Technologies (Essex Junction, Vt.); host or cells: human plasma
Protocol: Solvent A consisted of 25 mM n-hexylamine in water containing 0.1% (v/v) formic acid, while solvent B consisted of 25 mM n-hexylamine in acetonitrile-water mixture (3:1 v/v) containing 0.1% (v/v) formic acid. […] The sample was first monitored for absorbance in the range of 190-400 nm and then directly introduced into the mass spectrometer. ESI-MS detection was performed in positive ion mode for which the capillary voltage was 4 kV, cone voltage was 20 V, desolvation temperature was 350° C. and nitrogen gas flow was maintained at 650 L/hr. Mass scans were collected in the range of 1000-2048 amu within 0.25 s and several of these added to enhanced signal-to-noise ratio. Direct Inhibition of Factor XIa. […] After 10 min incubation, 5 μL factor XIa substrate (345 μM) was rapidly added and the residual FXIa activity was measured from the initial rate of increase in absorbance at 405 nm. […] Relative residual FXIa activity at each concentration of the inhibitor was calculated from the ratio of FXIa activity in the presence and absence of the inhibitor. Logistic equation 1 was used to fit the dose-dependence of residual protease activity to obtain the potency (IC50) and efficacy (ΔY) of inhibition.
Direct Inhibition of Factor XIa by Sulfated QAOs was performed as described in Example 1.
The ability of the sulfated inositol analogs to inhibit factor XIa was studied using the in vitro assay described in Example 1. In this assay, the factor XIa enzyme is anticipated to hydrolyze a particular peptide linkage in the corresponding peptide substrate releasing p-nitroaniline which absorbs at wavelength of 405 nm giving a line slope corresponds to the enzyme activity. The line slope of no inhibitor status is considered as a reference slope and it depends on the relative concentrations of factor XIa enzyme and its substrate. Factor XIa enzyme concentration was decided to get appropriate reference slope of approximately 25-35, whereas the substrate concentration was set to be larger than its affinity to factor XIa enzyme under equilibrium condition, Km. In presence of potential factor XIa inhibitor, the enzyme capacity to hydrolyze the designated peptide linkage in the substrate gets diminished or completely abolished depending on the inhibitor concentration and efficacy. […] Such decreased slope reflects a drop in the catalytic enzyme activity of factor XIa.

human plasma [1] = assay: Activated partial thromboplastin time (APTT) plasma clotting assay; conditions: human plasma, concentration doubling clotting time
Protocol: (§1) Plasma clotting assays, prothrombin and activated partial thromboplastin time (PT and APTT, respectively), are routinely used to assess the anticoagulation potential of new enzyme inhibitors in an in vitro setting. Whereas PT measures the effect of an inhibitor on the extrinsic pathway of coagulation, APTT measures the effect on the intrinsic pathway.
(§2) Prothrombin Time (PT) and Activated Partial Thromboplastin Time (APTT) were assessed as described in Example 1.

human plasma [2] = assay: Prothrombin time (PT) plasma clotting assay; conditions: for 2 × PT: concentration doubling clotting time
Protocol: as §1, §2

FXIa wild type (FXIa-WT) = target: T2, FXIa wild type (FXIa-WT) (Homo sapiens, UniProt P03951); assay: Michaelis-Menten kinetics of S-2366 hydrolysis by full-length factor XIa; conditions: 14S 135 μM, pH 7.4, 37° C.
T2 construct: made in house; host or cells: HEK-293
Protocol: Plasma FIX (500 nM) was incubated with human FXIa (3 nM) in 50 mM Hepes buffer, pH 7.4, containing 125 mM NaCl, 5 mM CaCl2, and 0.1 mg/mL bovine serum albumin at 24° C. […] The primary antibody was goat anti-human FIX polyclonal IgG (Enzyme Research Laboratories, South Bend, Tenn.), and the secondary antibody was horseradish peroxidase-conjugated anti-goat IgG. Detection was by chemiluminescence. […] The inhibition profile was determined over a range of inhibitor concentrations to determine the IC50 of the enzyme-inhibitor complex. The KM of the substrate for its enzyme was used to identify the concentration of the substrate to be used for inhibition studies. […] Active site concentrations for preparations of FXIa were determined by titrations with human antithrombin in an S-2366 cleavage assay. The reaction was monitored using a SpectraMax 340 microtiter plate reader (Molecular Devices Corp., Sunnyvale, Calif.) with a reaction volume of 100 μL and path length of 3 mm. Each assay was performed in triplicate. The concentration of S-2366 was measured using an absorption coefficient of 8,266 M-1cm-1 at λ342 nm, while the free p-nitroaniline concentration was calculated using an absorption coefficient of 9,933 M cm^−1 at λ405 nm. The data was fitted using the standard Michaelis-Menten equation to determine the KM and VMAX. Results

[3] = sulfated QAOs, pH 7.4, 37° C., read-out: IC50 (converted)

T1 sequence (P03951 19-387 limits assumed): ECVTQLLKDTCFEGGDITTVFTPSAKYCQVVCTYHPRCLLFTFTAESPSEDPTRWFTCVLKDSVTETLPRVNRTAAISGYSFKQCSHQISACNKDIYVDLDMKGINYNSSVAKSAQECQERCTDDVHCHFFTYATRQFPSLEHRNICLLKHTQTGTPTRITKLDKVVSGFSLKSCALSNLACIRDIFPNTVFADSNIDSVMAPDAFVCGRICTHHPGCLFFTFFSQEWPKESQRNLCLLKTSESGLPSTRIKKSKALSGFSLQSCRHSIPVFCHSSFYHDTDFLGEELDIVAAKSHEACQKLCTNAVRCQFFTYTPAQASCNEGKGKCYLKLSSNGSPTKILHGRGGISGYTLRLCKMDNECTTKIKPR
T1 sequence (P03951 388-625 limits assumed): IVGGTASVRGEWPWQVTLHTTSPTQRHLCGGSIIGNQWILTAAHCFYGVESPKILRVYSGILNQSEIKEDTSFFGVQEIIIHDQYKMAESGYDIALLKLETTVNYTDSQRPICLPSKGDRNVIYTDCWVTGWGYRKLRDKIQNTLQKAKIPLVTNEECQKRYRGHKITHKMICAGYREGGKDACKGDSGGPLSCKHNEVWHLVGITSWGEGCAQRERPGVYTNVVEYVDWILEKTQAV
T2 sequence (P03951 19-387 limits assumed): as the sequence (P03951 19-387 limits assumed) above
T2 sequence (P03951 388-625 limits assumed): as the sequence (P03951 388-625 limits assumed) above

| SMILES | IC50 (human factor XIa; [3]) | ΔY % (efficacy) (human factor XIa; sulfated QAOs) [%] | other results |
| --- | --- | --- | --- |
| O=C(OC[C@H]1O[C@@H](OC(=O)c2cc(O)c(O)c(O)c2)[C@H](OC(=O)c2cc(O)c(O)c(O)c2)[C@@H](OC(=O)c2cc(O)c(O)c(O)c2)[C@@H]1OC(=O)c1cc(O)c(O)c(O)c1)c1cc(O)c(O)c(O)c1 [Inhibitor 5, pentagalloyl glucopyranoside, reference compound] | – | – | inhibition of FXIa proteolytic activity (human factor XIa; highest concentration tested (300 μM)): completely inactive |
| CC(=O)Oc1cccc(-c2nc3ccccc3c(=O)n2Cc2cn(CCCCn3c(-c4cccc(OS(=O)(=O)O)c4)nc4ccccc4c3=O)nn2)c1 [Inhibitor 7S] | > 1000 µM | – | factor XIa inhibition (in words) (human factor XIa; pH 7.4, 37° C.): inactive |
| CC(=O)Oc1cc(OS(=O)(=O)O)cc(-c2nc3ccccc3c(=O)n2Cc2cn(CCCCn3c(-c4cccc(OS(=O)(=O)O)c4)nc4ccccc4c3=O)nn2)c1 [Inhibitor 9S] | 153 µM | 96 ± 1 | – |
| O=c1c2ccccc2nc(-c2cccc(OS(=O)(=O)O)c2)n1CCCn1cc(Cn2c(-c3cccc(OS(=O)(=O)O)c3)nc3ccccc3c2=O)nn1 [Inhibitor 11S] | – | 91 ± 4 | – |
| O=c1c2ccccc2nc(-c2ccc(OS(=O)(=O)O)cc2)n1CCCCCn1cc(Cn2c(-c3ccc(OS(=O)(=O)O)cc3)nc3ccccc3c2=O)nn1 [Inhibitor 15S] | 59 µM | 89 ± 2 | 2 × APTT (human plasma [1]): 1062 µM; 2 × PT (human plasma [2]): 1684 µM |
| O=c1c2ccccc2nc(-c2cccc(OS(=O)(=O)O)c2)n1CCCCn1cc(Cn2c(-c3cc(OS(=O)(=O)O)cc(OS(=O)(=O)O)c3)nc3ccccc3c2=O)nn1 [Inhibitor 18S] | 213 ± 2 µM | 93 ± 2 | – |
| CC(=O)Oc1cc(OS(=O)(=O)O)cc(-c2nc3ccccc3c(=O)n2CCCCn2cc(Cn3c(-c4cc(OS(=O)(=O)O)cc(OS(=O)(=O)O)c4)nc4ccccc4c3=O)nn2)c1 [Inhibitor 19S] | 273 ± 3 µM | 91 ± 2 | – |
| O=c1c2ccccc2nc(-c2cc(OS(=O)(=O)O)cc(OS(=O)(=O)O)c2)n1CCCCn1cc(Cn2c(-c3cc(OS(=O)(=O)O)cc(OS(=O)(=O)O)c3)nc3ccccc3c2=O)nn1 [Inhibitor 20S] | > 1000 µM | – | – |
| COc1cc(OS(=O)(=O)O)cc2oc(-c3ccc(OS(=O)(=O)O)c(OCc4cn(CCCCn5c(-c6cccc(OS(=O)(=O)O)c6)nc6ccccc6c5=O)nn4)c3)c(OS(=O)(=O)O)c(=O)c12 [Inhibitor 25S] | > 1000 µM | – | – |
| COc1cc(-c2nc3ccccc3c(=O)n2CCCCn2cc(COc3cc(-c4oc5cc(OS(=O)(=O)O)cc(OC)c5c(=O)c4OS(=O)(=O)O)ccc3OS(=O)(=O)O)nn2)ccc1OS(=O)(=O)O [Inhibitor 26S] | 216 µM | – | – |
| O=c1c2ccccc2nc(-c2ccc(OS(=O)(=O)O)cc2)n1Cc1cn(CCn2cc(Cn3c(-c4ccc(OS(=O)(=O)O)cc4)nc4ccccc4c3=O)nn2)nn1 [Inhibitor 28S] | – | 98 ± 3 | – |
| O=c1c2ccccc2nc(-c2ccc(OS(=O)(=O)O)cc2)n1CCCCCn1nncc1Cn1c(-c2ccc(OS(=O)(=O)O)cc2)nc2ccccc2c1=O [Inhibitor 29S] | 94 µM and 90 µM | 94 ± 1 | – |
| O=C(OC1C(OC(=O)c2cc(OS(=O)(=O)O)cc(OS(=O)(=O)O)c2)C(OC(=O)c2cc(OS(=O)(=O)O)cc(OS(=O)(=O)O)c2)C(OC(=O)c2cc(OS(=O)(=O)O)cc(OS(=O)(=O)O)c2)C(OC(=O)c2cc(OS(=O)(=O)O)cc(OS(=O)(=O)O)c2)C1OC(=O)c1cc(OS(=O)(=O)O)cc(OS(=O)(=O)O)c1)c1cc(OS(=O)(=O)O)cc(OS(=O)(=O)O)c1 (stereo not drawn) [SMI, Sulfated hexa-substituted myo-inositol] | – | – | IC50 (human factor XIa; read-out: FXIa-IC50): 0.09 µM |

Continued, in another order:

| IC50 (human factor XIa; [3]) | ΔY % (efficacy) (human factor XIa; sulfated QAOs) [%] | SMILES | other results |
| --- | --- | --- | --- |
| – | 100 ± 6 | O=c1c2ccccc2nc(-c2cccc(OS(=O)(=O)O)c2)n1CCCCn1cc(Cn2c(-c3cccc(OS(=O)(=O)O)c3)nc3ccccc3c2=O)nn1 [Inhibitor 8S] | – |
| 139 ± 1 µM | 95 ± 1 | COc1cc(-c2nc3ccccc3c(=O)n2CCCCn2cc(Cn3c(-c4ccc(OS(=O)(=O)O)c(OC)c4)nc4ccccc4c3=O)nn2)ccc1OS(=O)(=O)O [Inhibitor 10S] | – |
| 159 ± 2 µM | 88 ± 3 | O=c1c2ccccc2nc(-c2ccc(OS(=O)(=O)O)cc2)n1CCCCn1cc(Cn2c(-c3cccc(OS(=O)(=O)O)c3)nc3ccccc3c2=O)nn1 [Inhibitor 12S] | – |
| 82 µM and ~80 µM | 91 ± 2 | O=c1c2ccccc2nc(-c2ccc(OS(=O)(=O)O)cc2)n1CCCCn1cc(Cn2c(-c3ccc(OS(=O)(=O)O)cc3)nc3ccccc3c2=O)nn1 [Inhibitor 13S] | 2 × APTT (human plasma [1]): 979 µM; concentration for 2-fold increase in PT (human plasma [2]): about 1.12 mM; 2 × PT (human plasma [2]): 1119 µM |
| 91 µM | 103 ± 5 | O=c1c2ccccc2nc(-c2cccc(OS(=O)(=O)O)c2)n1CCCCn1cc(Cn2c(-c3ccc(OS(=O)(=O)O)cc3)nc3ccccc3c2=O)nn1 [Inhibitor 14S] | VMAX (FXIa wild type (FXIa-WT)): 5.1±0.5 mAU/min |
| 182 ± 1 µM | 88 ± 5 | COc1cc(-c2nc3ccccc3c(=O)n2CCCCn2cc(Cn3c(-c4cccc(OS(=O)(=O)O)c4)nc4ccccc4c3=O)nn2)ccc1OS(=O)(=O)O [Inhibitor 17S] | – |
